Assays:
Format in all cases: cell-based
SF-295 = conditions: SF-295
ACHN = conditions: ACHN
HL-60(TB) = conditions: HL-60(TB); 10^−5 molar
OVCAR-8 = conditions: OVCAR-8
BT-549 = conditions: BT-549
786-0 = conditions: 786-0
U251 = conditions: U251, five dose
DU-145 = conditions: DU-145
HCT-15 = conditions: HCT-15
SR = conditions: SR
PC-3 = conditions: PC-3
LOX IMVI = conditions: LOX IMVI, five dose
60 cancer cell lines = test: NCI 60-cell screen, SRB, whole panel (mean, delta, range)
HCT-116 = conditions: HCT-116
HOP-62 = conditions: HOP-62
UO-31 = conditions: UO-31
HS 578T = conditions: HS 578T
MDA-MB-231/ATCC = conditions: MDA-MB-231/ATCC
MCF7 = conditions: MCF7
NCI-H522 = conditions: NCI-H522
NCI-H23 = conditions: NCI-H23
SW-620 = conditions: SW-620
T-47D = conditions: T-47D
SNB-75 = conditions: SNB-75
NCI-H226 = conditions: NCI-H226
SK-MEL-5 = conditions: SK-MEL-5
RXF 393 = conditions: RXF 393; 10^−5 molar
NCI-H460 = conditions: NCI-H460
K-562 = conditions: K-562
KM12 = test: cells; conditions: KM12
SN12C = conditions: SN12C
SK-OV-3 = conditions: SK-OV-3
A549/ATCC = conditions: A549/ATCC
MOLT-4 = conditions: MOLT-4
CCRF-CEM = conditions: CCRF-CEM
COLO 205 = conditions: COLO 205
RPMI-8226 = conditions: RPMI-8226
MDA-MB-486 = conditions: MDA-MB-486
HT29 = conditions: HT29
[1] = Homo sapiens, five dose, read-out: LC50 (the source's name)

O=c1c2cc(Cl)ccc2sc2c(NCc3ccccc3)nc3ccccc3c12 [Compound N25, 6-(Benzylamino)-10-chloro-12H-thiochromeno[2,3-c]quinolin-12-one]
GI50 (SF-295; Homo sapiens, five dose): 3.5 µM
LC50 (SF-295; Homo sapiens, five dose): > 100 µM
Growth percent (SF-295; 10^−5 molar): 74.33%
TGI (SF-295; five dose): 16.50 µM
Growth percent (ACHN; 10^−5 molar): 51.82%
TGI (ACHN; five dose): >100 µM
GI50 (ACHN; Homo sapiens, five dose): 4.02 µM
CC50 (ACHN; [1]): > 100 µM
Growth percent (HL-60(TB)): 98.82%
GI50 (OVCAR-8; Homo sapiens, five dose): 7.75 µM
CC50 (OVCAR-8; [1]): > 100 µM
Growth percent (OVCAR-8; 10^−5 molar): 68.33%
TGI (OVCAR-8; five dose): >100 µM
Growth percent (BT-549; 10^−5 molar): 97.19%
TGI (BT-549; five dose): >100 µM
GI50 (BT-549; Homo sapiens, five dose): 20.5 µM
CC50 (BT-549; [1]): > 100 µM
Growth percent (786-0; 10^−5 molar): 72.48%
TGI (786-0; five dose): 48.70 µM
GI50 (786-0; Homo sapiens, five dose): 9.55 µM
CC50 (786-0; [1]): > 100 µM
GI50 (U251; Homo sapiens, U-251): 4.41 µM
LC50 (U251; Homo sapiens, U-251): > 100 µM
TGI (U251): 25.10 µM
Growth percent (DU-145; 10^−5 molar): 74.80%
TGI (DU-145; five dose): >100 µM
GI50 (DU-145; Homo sapiens, five dose): 5.5 µM
CC50 (DU-145; [1]): > 100 µM
Growth percent (HCT-15; 10^−5 molar): 71.76%
TGI (HCT-15; five dose): >100 µM
GI50 (HCT-15; Homo sapiens, five dose): 8.75 µM
LC50 (HCT-15; Homo sapiens, five dose): > 100 µM
GI50 (SR; Homo sapiens, five dose): > 100 µM
LC50 (50% lethal concentration) (SR; Homo sapiens, five dose): > 100 µM
Growth percent (SR; 10^−5 molar): 85.46%
TGI (SR; five dose): >100 µM
GI50 (PC-3; Homo sapiens, five dose): 56.9 µM
CC50 (PC-3; [1]): > 100 µM
Growth percent (PC-3; 10^−5 molar): 72.70%
TGI (PC-3; five dose): >100 µM
GI50 (LOX IMVI; Homo sapiens): > 100 µM
LC50 (LOX IMVI; Homo sapiens): > 100 µM
TGI (LOX IMVI): >100 µM
GI50 (60 cancer cell lines; 60 cell, mean over panel, five dose): 11.2 µM
CC50 (60 cancer cell lines; 60 cell, mean over panel, five dose, read-out: LC50, Mean): 91.2 µM
Growth percent, Delta (60 cancer cell lines; delta over panel, 10^−5 molar): 81.80%
Growth percent, Mean (60 cancer cell lines; mean over panel, 10^−5 molar): 71.97%
TGI, Mean (60 cancer cell lines; mean over panel, five dose): 53.70 µM
Growth percent, Range (60 cancer cell lines; range over panel, 10^−5 molar): 112.76%
Growth percent (HCT-116; 10^−5 molar): 66.87%
TGI (HCT-116; five dose): >100 µM
GI50 (HCT-116; Homo sapiens, five dose): 5.59 µM
LC50 (concentration killing 50% of cells) (HCT-116; Homo sapiens, five dose): > 100 µM
Growth percent (HOP-62; 10^−5 molar): 66.53%
TGI (HOP-62; five dose): 5.92 µM
GI50 (HOP-62; Homo sapiens, five dose): 2430 nM
LC50 (lethal concentration 50) (HOP-62; Homo sapiens, five dose): 27.7 µM
GI50 (UO-31; Homo sapiens, five dose): 57.8 µM
CC50 (UO-31; [1]): > 100 µM
Growth percent (UO-31; 10^−5 molar): 65.31%
TGI (UO-31; five dose): >100 µM
Growth percent (HS 578T; 10^−5 molar): 34.73%
TGI (HS 578T; five dose): 21.20 µM
GI50 (HS 578T; Homo sapiens, five dose): 2940 nM
CC50 (HS 578T; [1]): > 100 µM
GI50 (MDA-MB-231/ATCC; Homo sapiens, five dose): 2360 nM
CC50 (MDA-MB-231/ATCC; [1]): > 100 µM
Growth percent (MDA-MB-231/ATCC; 10^−5 molar): 32.67%
TGI (MDA-MB-231/ATCC; five dose): 34.80 µM
GI50 (MCF7; Homo sapiens, five dose): 40 nM
CC50 (MCF7; [1]): > 100 µM
Growth percent (MCF7; 10^−5 molar): 16.01%
TGI (MCF7; five dose): 18.60 µM
GI50 (NCI-H522; Homo sapiens, five dose): 25.3 µM
LC50 (concentration causing 50% net cell kill) (NCI-H522; Homo sapiens, five dose): > 100 µM
Growth percent (NCI-H522; 10^−5 molar): 75.71%
TGI (NCI-H522; five dose): >100 µM
GI50 (NCI-H23; Homo sapiens, five dose): 15.2 µM
LC50 (lethal concentration 50%) (NCI-H23; Homo sapiens, five dose): > 100 µM
Growth percent (NCI-H23; 10^−5 molar): 74.37%
TGI (NCI-H23; five dose): >100 µM
LC50 (SW-620; Homo sapiens, five dose): > 100 µM
Growth percent (SW-620; 10^−5 molar): 78.97%
TGI (SW-620; five dose): >100 µM
GI50 (T-47D; Homo sapiens, T47D, five dose): 1260 nM
CC50 (T-47D; Homo sapiens, T47D, five dose, read-out: LC50 (the source's name)): > 100 µM
Growth percent (T-47D; 10^−5 molar): 38.08%
TGI (T-47D; five dose): 7.11 µM
GI50 (SNB-75; Homo sapiens, five dose): 1450 nM
LC50 (SNB-75; Homo sapiens, five dose): 9.91 µM
Growth percent (SNB-75; 10^−5 molar): 14.83%
TGI (SNB-75; five dose): 3.78 µM
GI50 (NCI-H226; Homo sapiens, five dose): 1840 nM
LC50 (concentration giving 50% net cell kill) (NCI-H226; Homo sapiens, five dose): > 100 µM
Growth percent (NCI-H226; 10^−5 molar): 79.35%
GI50 (SK-MEL-5; Homo sapiens, five dose): 4.23 µM
LC50 (SK-MEL-5; Homo sapiens, five dose): > 100 µM
Growth percent (SK-MEL-5; 10^−5 molar): 92.81%
TGI (SK-MEL-5; five dose): >100 µM
Growth percent (RXF 393): 71.08%
GI50 (NCI-H460; Homo sapiens, five dose): 5 µM
LC50 (NCI-H460; Homo sapiens, five dose): > 100 µM
Growth percent (NCI-H460; 10^−5 molar): 64.41%
TGI (NCI-H460; five dose): >100 µM
GI50 (K-562; Homo sapiens, K562, five dose): > 100 µM
CC50 (K-562; Homo sapiens, K562, five dose, read-out: LC50 (the source's name)): > 100 µM
Growth percent (K-562; 10^−5 molar): 90.61%
TGI (K-562; five dose): >100 µM
GI50 (KM12; Homo sapiens, five dose): 48.3 µM
LC50 (KM12; Homo sapiens, five dose): > 100 µM
Growth percent (KM12; 10^−5 molar): 80.34%
TGI (KM12; five dose): >100 µM
GI50 (SN12C; Homo sapiens, five dose): 24.9 µM
CC50 (SN12C; [1]): > 100 µM
Growth percent (SN12C; 10^−5 molar): 87.80%
TGI (SN12C; five dose): >100 µM
GI50 (SK-OV-3; Homo sapiens, five dose): 3.56 µM
CC50 (SK-OV-3; [1]): > 100 µM
Growth percent (SK-OV-3; 10^−5 molar): 36.71%
TGI (SK-OV-3; five dose): 13.90 µM
Growth percent (A549/ATCC; 10^−5 molar): 68.33%
TGI (A549/ATCC; five dose): >100 µM
GI50 (A549/ATCC; Homo sapiens, five dose): 14.4 µM
LC50 (A549/ATCC; Homo sapiens, five dose): > 100 µM
GI50 (MOLT-4; Homo sapiens, five dose): > 100 µM
CC50 (MOLT-4; [1]): > 100 µM
Growth percent (MOLT-4; 10^−5 molar): 92.42%
TGI (MOLT-4; five dose): >100 µM
Growth percent (CCRF-CEM; 10^−5 molar): 102.34%
TGI (CCRF-CEM; five dose): >100 µM
GI50 (CCRF-CEM; Homo sapiens, five dose): > 100 µM
CC50 (CCRF-CEM; [1]): > 100 µM
Growth percent (COLO 205; 10^−5 molar): 80.79%
TGI (COLO 205; five dose): >100 µM
LC50 (COLO 205; Homo sapiens, five dose): > 100 µM
GI50 (RPMI-8226; Homo sapiens, five dose): > 100 µM
CC50 (RPMI-8226; [1]): > 100 µM
Growth percent (RPMI-8226; 10^−5 molar): 88.54%
TGI (RPMI-8226; five dose): >100 µM
GI50 (MDA-MB-486; 60 cell, five dose): 30 nM
CC50 (MDA-MB-486; 60 cell, five dose, read-out: LC50 (the source's name)): 63.1 µM
Growth percent (MDA-MB-486; 10^−5 molar): −9.83%
TGI (MDA-MB-486; five dose): 0.66 µM
Growth percent (HT29; 10^−5 molar): 77.16%
TGI (HT29; five dose): >100 µM
LC50 (concentration killing 50% of cells) (HT29; Homo sapiens, HT-29, five dose): > 100 µM

Reference: US8927717B1, “Thiochromeno[2,3-c]quinolin-12-one derivatives, preparation method and application thereof” (National Defense Medical Center, priority 2014, dated 2015)
